Where a name gives a salt, the structure may show the parent alone. Read-outs that look alike come from different tables or passages of the source.
What was measured:
Dopamin-Autorezeptoren = assay: Inhibition of dopamine turnover (AMPT-induced fall of whole-brain dopamine) in mice; type: in vivo, Mäusen; settings: 5 mg/kg s.c., AMPT 250 mg/kg i.p. at 15 min, whole brain dopamine at 4 h 15 min
Procedure: 2. Bestimmung der Dopaminturnoverhemmung:
Die Dopaminturnoverhemmung wurde an Mäusen gemessen. Bei Tieren, die mit α-Methyl-p-tyrosin (AMPT) (250 mg/kg i.p.) zum Zeitpunkt 15 Minuten des Experimentes behandelt werden, fällt die Dopaminkonzentration im Gesamthirn mit fortschreitender Versuchsdauer ab. Durch Substanzen, die an Dopamin-Autorezeptoren wirken, kann der Dopaminabfall (im Vergleich zu mit Kochsalzlösung behandelten Kontrolltieren) verhindert werden. Testsubstanzen werden zum Zeitpunkt 0 des Experiments subkutan appliziert (5 mg/kg s.c.). Zum Zeitpunkt 4 Stunden und 15 Minuten des Experiments werden die Tiere getötet und die Gehirne der Dopaminbestimmung mittels Hochdruckflüssigkeitschromatographie mit elektrochemischer Detektion zugeführt. Bestimmt wird die durch die Testsubstanz bewirkte prozentuale Hemmung des durch AMPT induzierten Dopaminabfalls: […]

[1] = tested on: mit Reserpin behandelten Maus; assay: Anti-Parkinson effect: induction of motility in mice treated with reserpine 24 h earlier; type: in vivo; settings: 2 mg/kg s.c., measured 20 min later, group of 6 mice, x ± sx; saline controls ca. 5
Procedure: 3. Bestimmung der Anti-Parkinson-Wirkung nach der Methode von Hinzen D. et al., European Journal of Pharmacology 131, 75-88 (1986):
a) Motilitätsauslösung an der 24 Stunden zuvor mit Reserpin behandelten Maus:
Mäuse werden 24 Stunden vor dem Experiment mit 5 mg/kg Reserpin i.p. behandelt; die Tiere werden bei 25-30°C gehalten und 3 × mit 2 ml einer 5%igen Glucose-lösung in Tyrode s.c. behandelt. Gruppen zu je 6 Tieren erhalten die Testsubstanz mit 2 mg/kg s.c. injiziert. 20 Minuten später werden die Tiere zur Aktivitätsmessung in Beobachtungskäfige gesetzt, die mit einer Infrarotlichtschranke ausgerüstet sind. Meß-wert ist die Häufigkeit des Passierens des Infrarotstrahles durch eine Gruppe von 6 Mäusen in 5 Minuten ("Laufimpulse/5 Minuten").
Pro Substanz werden 6 Gruppen geprüft. Kontrolltiere erhalten isotone Kochsalzlösung s.c..
Als Ergebnis werden die mit der Testsubstanz erzielten Laufimpulse/5 Minuten dargestellt (x ± sx) Kontrolltiere (Kochsalzlösung) zeigen minimale Aktivität (ca. 5 Laufimpulse/5 Minuten).

Dopamin (D₂)-Rezeptor = molecular target: T1, Dopamin (D₂)-Rezeptor (Rattus norvegicus, UniProt P61169); assay: Dopamine (D2) receptor binding affinity, 3H-spiroperidol displacement in rat striatal homogenate; parameters: species or system Ratten
T1 construct: Die Striata werden herauspräpariert und in 25 ml eiskaltem Puffer; from tissue; host or cells: rat striatum membrane homogenate
T1 sequence (P61169 whole entry): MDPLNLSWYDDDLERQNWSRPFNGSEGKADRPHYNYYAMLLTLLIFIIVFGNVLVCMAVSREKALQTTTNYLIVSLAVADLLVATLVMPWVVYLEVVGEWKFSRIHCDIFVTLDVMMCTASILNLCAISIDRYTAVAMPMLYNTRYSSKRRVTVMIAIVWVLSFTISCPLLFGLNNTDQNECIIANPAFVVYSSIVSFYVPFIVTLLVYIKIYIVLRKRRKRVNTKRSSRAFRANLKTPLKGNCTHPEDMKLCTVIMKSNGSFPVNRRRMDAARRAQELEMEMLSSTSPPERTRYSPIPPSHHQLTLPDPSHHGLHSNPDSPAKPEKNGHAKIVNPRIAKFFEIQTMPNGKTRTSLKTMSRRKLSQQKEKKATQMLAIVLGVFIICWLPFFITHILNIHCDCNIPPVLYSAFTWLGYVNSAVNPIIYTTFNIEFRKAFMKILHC
Procedure: 1.) Bestimmung der Dopamin (D₂)-Rezeptorbindungsaffinitäten nach der modifizierten Methode von D.J. de Vries und P.M. Beart (Europ. J. Pharmacology 109, 417-419 (1985)):
Ratten werden durch Schlag betäubt, dekapitiert und das Ge hirn entnommen. Die Striata werden herauspräpariert und in 25 ml eiskaltem Puffer (50 mM TRIS-HCl, 1 mM EDTA, 5 mM MgCl₂, 1mM Ascorbinsäure, pH=7,20) homogenisiert. Das Homogenat wird 15 Minuten bei 0°C und 50000 × g zentrifugiert. Der Überstand wird verworfen. Das Pellet wird durch Resuspension und erneute Zentrifugation zweimal gewaschen und anschließend bei 37°C eine halbe Stunde vorinkubiert. Das Inkubat wird wie zuvor beschrieben zentrifugiert und der Überstand verworfen. Das Pellet wird in 60 ml Puffer resuspen diert, homogenisiert und dann mit Puffer 1:500 bezogen auf das Striatagewicht verdünnt.
Für den Inkubationsansatz werden 10 µl ³H-Spiroperidol-Lö-sung ([…]; Endkonzentration: 2,5 × 10⁻¹⁰ M), 970 µl Puffer sowie 20 µl Testsubstanzlösung (Endkonzentration: 10⁻¹¹-10⁻⁴ M) vorgelegt. Die unspezifische Bindung wird in Gegenwart von 1 µM Haloperidol bestimmt. Durch Zugabe von 1 ml Homogenatlösung zu dieser Vorlage wird der Assay gestartet. Die Inkubationszeit beträgt 60 Minuten bei Raumtemperatur. Nach Ablauf dieser Zeit wird das Inkubat über ein GF/B-Filter abgesaugt und mit 15 ml eiskaltem Puffer gewaschen. Das feuchte Filter wird mit Instagel® versetzt und über Nacht extrahiert. Anschließend wird die verbliebene Radioaktivität in einem Packard CA 2000 Szintillationscounter bei einer Zählausbeute von 50-55 % gezählt.
Mit Hilfe eines 2-Bindungsstellen-Iterationsprogrammes werden die IC₅₀-Werte ermittelt und daraus die Ki-Werte berechnet.

MPTP-Affen = assay: Anti-Parkinson effect: abolition of Parkinson symptoms in the MPTP monkey; type: in vivo, Rhesusaffen; settings: for Dauer (Wirkungsdauer): at the minimal dose; for minimal effective dose: Macaca mulatta, im, read-out: Dosis (Mindestdosen, die zur Aufhebung der Parkinsonsymptomatik führen)
Source text: b) Aufhebung der Parkinsonsymptome am MPTP-Affen nach der modifizierten Methode von Burns, R.S. und Chuang, C.: Proc. Natl. Acad. Sci. 80, 4546-4550 (1983):
Das durch das Neurotoxin 1-Methyl-4-phenyl-1,2,3,6-tetrahydro-pyridin (MPTP) beim Menschen und beim Affen ausgelöste, irreversible neurologische Krankheitsbild ähnelt in seiner klinischen, pathologischen, biochemischen und pharmakologischen Ausprägung weitgehend der idiopathischen Parkinson'schen Erkrankung (Markey et al., Nature 311, 464 (1984)). Ursache dieser überzeugenden Übereinstimmung ist die Tatsache, daß MPTP selektiv jene dopaminergen Nervenzellen in der Substantia nigra des Gehirns zerstört, welche auch bei der natürlich auftretenden Parkinson'schen Erkrankung durch degenerative Prozesse zerstört werden. Es wird diskutiert, daß auch die Ursache der idiopathischen Parkinson'schen Erkrankung im Organismus entstehendes MPTP oder eine ähnliche chemische Verbindung ist (Snyder, S.H., Nature 311, 514 (1984)). Möglicherweise bedingt durch den spezifischen Metabolismus des MPTP ist die klinische Ausprägung des MPTP-Parkinson'bildes bisher außer beim Menschen nur beim Affen nachweisbar.
Das an Rhesusaffen verwirklichte MPTP-Modell ist daher in hervorragendem Maße geeignet, die Wirkung von Anti-Parkinson-Medikamenten zu prüfen. Insgesamt 7 Rhesusaffen waren an dem Versuch beteiligt. Sie hatten über mehrere Tage verteilt, kumulative Dosen von 2,4-6,25 mg/kg MPTP erhalten, bis stabile und irreversible Parkinson-Symptome aufgetreten waren. Im Vordergrund der Symptomatik stand die Bradykinesie, die alle Tiere zeigten, teilweise sogar bis hin zur Akinesie. Kein Tier war in der Lage, spontan Wasser oder Futter aufzunehmen. Die Reaktivität war stark vermindert, meist verharrten die Tiere in einer typischen Beugehaltung. Tremor wurde gelegentlich gesehen. Die Extremitäten wiesen einen Rigor auf. Bei dem Versuch einer Willkür-Motorik traten häufig klonische Krämpfe auf.
Die nachfolgenden Verbindungen wurden jeweils an 2-3 der so vorbehandelten Tiere getestet. Bei intramuskulärer Gabe wurden nach etwa 5 bis 10 Minuten erste koordinierte Willkürbewegungen möglich, die in den folgenden 10 bis 30 Minuten von einer allmählichen, weitestgehenden Normalisierung der Motorik gefolgt waren. Die Tiere waren in der Lage, Nahrung aufzunehmen. Sie verhielten sich innerhalb ihrer Käfige regelgerecht, dies galt auch hinsichtlich Vigilanz und artspezifischen Verhaltens. Als Restsymptomatik wurde gelegentlich leichter Ruhetremor registriert.
Sobald die Wirkung der Verbindungen nachließ, verfielen die Tiere wieder in die oben beschriebene Parkinson-Symptomatik; eine erneute Applikation der Verbindungen führte wieder zur Besserung bzw. weitgehenden Aufhebung der klinischen Erscheinungen.
Nebenwirkungen traten in den bisher angewandten Dosierungen nicht in Erscheinung.
In der nachfolgenden Tabelle werden sowohl die Mindestdosen, die zur Aufhebung der Parkinsonsymptomatik führen, angegeben, als auch die Wirkungsdauer.

Mäusen = assay: Toxicity in mice, oral dosing; type: in vivo; settings: doses up to 500 mg/kg p.o.
Source text: Ferner sind die erfindungsgemäß hergestellten Verbindungen weitgehend untoxisch. So konnten z.

[2] = MPTP-treated rhesus monkeys, i.m.
[3] = rat striata, 3H-Spiroperidol 2,5 × 10⁻¹⁰ M, 60 min at room temperature, Ki calculated from IC50, read-out: Ki

SMILES	Hemmung des Dopaminabfalls (Dopamin-Autorezeptoren) [%]	Zahl der Laufimpulse/5 min [1] [Laufimpulse/5 min]	Ki (Dopamin (D₂)-Rezeptor) [nM]	Dauer (Wirkungsdauer) (MPTP-Affen; [2])	minimal effective dose (MPTP-Affen) [mg/kg]	Ki (Dopamin (D₂)-Rezeptor; [3]) [nM]	minimal effective dose (MPTP-Affen; MPTP-treated rhesus monkeys, 2-3 animals per compound, i.m.) [mg/kg]	Todesfälle (Mäusen)
CCCN1CCC(c2csc(N)n2)CC1 [Substanz F, 2-Amino-4-(1-propyl-piperidin-4-yl)thiazol]	59	65 ± 17	38	2-3 Std.	0.2			
Nc1nc(C2=CCCNC2)cs1 [Substanz E, 2-Amino-4-(1,2,3,6-tetrahydro-pyridin-5-yl)thiazol-dihydrochlorid]						3		
C=CCN1CCC=C(c2csc(N)n2)C1 [Substanz B, 2-Amino-4-(1-allyl-1,2,3,6-tetrahydro-pyridin-5-yl)-thiazol]		52 ± 9		2-5 Std.		8	0.05	
CCCN1CCC=C(c2csc(N)n2)C1 [Substanz A, 2-Amino-4-(1-propyl-1,2,3,6-tetrahydro-pyridin-5-yl)-thiazol]	35	44 ± 4				36		
CCCN1CC=C(c2csc(N)n2)CC1 [Substanz D, 2-Amino-4-(1-propyl-1,2,3,6-tetrahydro-pyridin-4-yl)-thiazol]	80	80 ± 10	6	2-3 Std.	0.03			
C=CCN1CC=C(c2csc(N)n2)CC1 [Substanz C, 2-Amino-4-(1-allyl-1,2,3,6-tetrahydro-pyridin-4-yl)-thiazol]	47	32 ± 7	22	2-4 Std.	0.35			keine Todesfälle
